According to patent US10183949B2, “Pyrimidinone derivative having autotaxin-inhibitory activity” (The University of Tokyo, priority 2014, dated 2019):

Target: T1, Human autotaxin enzyme (Homo sapiens, UniProt Q13822)
T1 construct: purchased R&D System
Assay: Evaluation of autotaxin inhibitor, 18:0 Lyso PC / choline assay (Test Example 2)
Assay type: biochemical
Settings: human autotaxin enzyme, 18:0 Lyso PC substrate, choline assay, room temperature 2 hours; read-out: Inhibitor activity (IC50)
How it was run: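 Human autotaxin in 100 mM Tris-HCl pH 7.5, 150 mM NaCl, 5 mM MgCl2, 0.05% Triton X-100 reacted with 18:0 Lyso PC (200 μM stock) and test compound 2 h at room temperature. Released choline quantified via choline oxidase/peroxidase resorufin fluorescence (ex 531/em 598 nm, 20 min); inhibition vs no-compound and no-enzyme controls, concentration-response curve.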

## COC(=O)Nc1cc(Cl)ccc1-c1cc(=O)n(CC(=O)N2CCOCC2(C)C)c(C)n1 [Compound I-0285]
  IC50: 10 to 100 nM

## COC(=O)Nc1cc(Cl)ccc1-c1cc(=O)n(CC(=O)NCC2(CO)COC2)c(C)n1 [Compound I-0286]
  IC50: 10 to 100 nM

## Cc1nc(-c2ccc(C#N)cc2NC(=O)C2CC2)cc(=O)n1CC(=O)NCC1(CO)COC1 [Compound I-0287]
  IC50: 10 to 100 nM

## O=C(O)c1cncc(Cn2c(CCCC(F)(F)F)nc(-c3ccc(Cl)cc3)cc2=O)c1 [Compound I-0288]
  IC50: 10 to 100 nM

## O=C(O)c1cccc(Cn2c(CCCC(F)(F)F)nc(-c3ccc(Cl)cc3)cc2=O)n1 [Compound I-0289]
  IC50: 100 to 1000 nM

## Cc1nc(-c2ccc(Cl)cc2NC(=O)C(C)(C)C)cc(=O)n1Cc1cccc(C(=O)O)c1 [Compound I-0290]
  IC50: < 10 nM

## COC(=O)c1ccc(Cn2c(CCCC(F)(F)F)nc(-c3ccc(Cl)cc3)cc2=O)o1 [Compound I-0291]
  IC50: 10 to 100 nM

## O=C(O)c1cc(Cn2c(CCCC(F)(F)F)nc(-c3ccc(Cl)cc3)cc2=O)cs1 [Compound I-0292]
  IC50: 10 to 100 nM

## O=C(O)c1ccc(Cn2c(CCCC(F)(F)F)nc(-c3ccc(Cl)cc3)cc2=O)s1 [Compound I-0293]
  IC50: 10 to 100 nM

## O=C(O)c1nc(Cn2c(CCCC(F)(F)F)nc(-c3ccc(Cl)cc3)cc2=O)cs1 [Compound I-0294]
  IC50: 10 to 100 nM

## CSc1nc(-c2ccc(Cl)cc2NC(=O)C2CC2)cc(=O)n1CC(=O)NC1(C#N)CC1 [Compound I-0295]
  IC50: 10 to 100 nM

## CC(C)(C)OC(=O)Cn1c(CCCC(F)(F)F)nc(-c2ccc(Cl)cc2C=O)cc1=O [Compound I-0296]
  IC50: 100 to 1000 nM

## CN(CC#N)C(=O)Cn1c(CCCC(F)(F)F)nc(-c2ccc(C(F)(F)F)cc2)cc1=O [Compound I-0297]
  IC50: 10 to 100 nM

## Cc1nc(-c2ccc(F)cc2NC(=O)C(C)(C)C)cc(=O)n1CC(=O)NCC1(CO)COC1 [Compound I-0298]
  IC50: 100 to 1000 nM

## CC(C)(C)OC(=O)Cn1c(CCCC(F)(F)F)nc(-c2ccc(Cl)cc2CO)cc1=O [Compound I-0299]
  IC50: < 10 nM

## Cc1nc(-c2ccc(Cl)cc2NC(=O)C2CC2)cc(=O)n1CC(=O)NCC1(CO)COC1 [Compound I-0300]
  IC50: 10 to 100 nM

## Cc1nc(-c2ccc(Cl)cc2NC(=O)C(C)(C)C)cc(=O)n1CC(=O)N1CCC(O)CC1 [Compound I-0301]
  IC50: 10 to 100 nM

## COC(=O)Nc1cc(Cl)ccc1-c1cc(=O)n(CC(=O)N(C)C2(CO)CCCC2)c(C)n1 [Compound I-0302]
  IC50: 10 to 100 nM

## CC(O)CNC(=O)Cn1c(CCCC(F)(F)F)nc(-c2ccc(C(F)(F)F)cc2)cc1=O (stereo not shown) [Compound I-0303]
  IC50: 10 to 100 nM

## CC(C)(C)OC(=O)Cn1c(CCCC(F)(F)F)nc(-c2ccc(C(F)(F)F)nc2)cc1=O [Compound I-0304]
  IC50: 10 to 100 nM

## CN(CCO)C(=O)Cn1c(CCCC(F)(F)F)nc(-c2ccc(C(F)(F)F)cc2)cc1=O [Compound I-0305]
  IC50: 10 to 100 nM

## COC(=O)c1cccc(Cn2c(CCCC(F)(F)F)nc(-c3ccc(Cl)cc3)cc2=O)n1 [Compound I-0306]
  IC50: 10 to 100 nM

## COC(=O)c1cncc(Cn2c(CCCC(F)(F)F)nc(-c3ccc(Cl)cc3)cc2=O)c1 [Compound I-0307]
  IC50: 100 to 1000 nM

## Cc1nc(-c2ccc(C#N)cc2NC(=O)C(C)(C)C)cc(=O)n1CC(=O)NCC1(CO)COC1 [Compound I-0308]
  IC50: 10 to 100 nM

## COC(=O)Nc1cc(Cl)ccc1-c1cc(=O)n(CC(=O)NC2CCS(=O)(=O)C2)c(C)n1 (stereo not shown) [Compound I-0309]
  IC50: 10 to 100 nM

## Cc1nc(-c2ccc(Cl)cc2NC(=O)C(C)(C)C)cc(=O)n1CC(=O)Nc1cccnc1O [Compound I-0310]
  IC50: 10 to 100 nM

## CCOC(=O)c1noc(Cn2c(CCCC(F)(F)F)nc(-c3ccc(Cl)cc3)cc2=O)n1 [Compound I-0311]
  IC50: 100 to 1000 nM

## COC(=O)c1ccc(Cn2c(CCCC(F)(F)F)nc(-c3ccc(Cl)cc3)cc2=O)s1 [Compound I-0312]
  IC50: 100 to 1000 nM

## COC(=O)c1cc(Cn2c(CCCC(F)(F)F)nc(-c3ccc(Cl)cc3)cc2=O)cs1 [Compound I-0313]
  IC50: 100 to 1000 nM

## N#CC1CN(C(=O)Cn2c(CCCC(F)(F)F)nc(-c3ccc(C(F)(F)F)cc3)cc2=O)C1 [Compound I-0314]
  IC50: 10 to 100 nM

## CC1(O)CN(C(=O)Cn2c(CCCC(F)(F)F)nc(-c3ccc(Cl)cc3CO)cc2=O)C1 [Compound I-0315]
  IC50: ≥ 1000 nM

## CSc1nc(-c2ccc(Cl)cc2NC(=O)C(C)(C)C)cc(=O)n1CC(=O)NC1(C#N)CC1 [Compound I-0316]
  IC50: 10 to 100 nM

## Cc1nc(-c2ccc(Cl)cc2NC(=O)C(C)(C)C)cc(=O)n1CC(=O)NCC1(CO)COC1 [Compound I-0317]
  IC50: 10 to 100 nM

## O=C(Cn1c(CCCC(F)(F)F)nc(-c2ccc(C(F)(F)F)cc2)cc1=O)NCC1CCO1 (stereo not shown) [Compound I-0318]
  IC50: 10 to 100 nM

## O=C(Cn1c(CCCC(F)(F)F)nc(-c2ccc(C(F)(F)F)cc2)cc1=O)N1CCC(O)C1 (stereo not shown) [Compound I-0319]
  IC50: 100 to 1000 nM

## CC1(O)CN(C(=O)Cn2c(CCCC(F)(F)F)nc(-c3ccc(C(F)(F)F)cc3)cc2=O)C1 [Compound I-0320]
  IC50: 100 to 1000 nM

## CC(C)(O)CNC(=O)Cn1c(CCCC(F)(F)F)nc(-c2ccc(C(F)(F)F)cc2)cc1=O [Compound I-0321]
  IC50: 10 to 100 nM

## O=C(O)c1cccc(Cn2c(CCCC(F)(F)F)nc(-c3ccc(Cl)cc3CO)cc2=O)c1 [Compound I-0322]
  IC50: 10 to 100 nM

## O=C(Cn1c(CCCC(F)(F)F)nc(-c2ccc(C(F)(F)F)cc2)cc1=O)NCC(O)CO (stereo not shown) [Compound I-0323]
  IC50: 10 to 100 nM

## COC(=O)Nc1cc(Cl)ccc1-c1cc(=O)n(CC(=O)NC2(C)CCS(=O)(=O)C2)c(C)n1 (stereo not shown) [Compound I-0324]
  IC50: 10 to 100 nM

## CS(C)(=O)=NC(=O)Cn1c(CCCC(F)(F)F)nc(-c2ccc(C(F)(F)F)cc2)cc1=O [Compound I-0325]
  IC50: 10 to 100 nM

## CCOC(=O)c1nc(Cn2c(CCCC(F)(F)F)nc(-c3ccc(Cl)cc3)cc2=O)cs1 [Compound I-0326]
  IC50: 10 to 100 nM

## N#CC1CCN(C(=O)Cn2c(CCCC(F)(F)F)nc(-c3ccc(C(F)(F)F)cc3)cc2=O)C1 (stereo not shown) [Compound I-0327]
  IC50: 10 to 100 nM

## O=C(Cn1c(CCCC(F)(F)F)nc(-c2ccc(Cl)cc2CO)cc1=O)NCC1(CO)CC1 [Compound I-0328]
  IC50: 10 to 100 nM

## Cc1nc(-c2ccc(Cl)cc2NC(=O)C(C)(C)C)cc(=O)n1CC(=O)N1CCC(C(N)=O)CC1 [Compound I-0329]
  IC50: 10 to 100 nM

## O=C(Cn1c(CCCC(F)(F)F)nc(-c2ccc(C(F)(F)F)cc2)cc1=O)NCc1c[nH]nn1 [Compound I-0330]
  IC50: 10 to 100 nM

## O=C(Cn1c(CCCC(F)(F)F)nc(-c2ccc(C(F)(F)F)cc2)cc1=O)NCc1nn[nH]n1 [Compound I-0331]
  IC50: < 10 nM

## CN(C(=O)Cn1c(CCCC(F)(F)F)nc(-c2ccc(C(F)(F)F)cc2)cc1=O)C1(C)COC1 [Compound I-0332]
  IC50: 10 to 100 nM

## O=C(Cn1c(CCCC(F)(F)F)nc(-c2ccc(C(F)(F)F)cc2)cc1=O)NCCc1cn[nH]c1 [Compound I-0333]
  IC50: 10 to 100 nM

## O=C(Cn1c(CCCC(F)(F)F)nc(-c2ccc(Cl)cc2CO)cc1=O)NCC1(CO)COC1 [Compound I-0334]
  IC50: 10 to 100 nM

## O=C(Cn1c(CCCC(F)(F)F)nc(-c2ccc(C(F)(F)F)cc2)cc1=O)NCC1CCC(=O)N1 (stereo not shown) [Compound I-0335]
  IC50: 10 to 100 nM

## O=C1CC(CNC(=O)Cn2c(CCCC(F)(F)F)nc(-c3ccc(C(F)(F)F)cc3)cc2=O)CN1 (stereo not shown) [Compound I-0336]
  IC50: 10 to 100 nM

## O=C(Cn1c(CCCC(F)(F)F)nc(-c2ccc(C(F)(F)F)cc2)cc1=O)NCC1(CO)COC1 [Compound I-0337]
  IC50: 10 to 100 nM

## O=C(Cn1c(CCCC(F)(F)F)nc(-c2ccc(C(F)(F)F)cc2)cc1=O)N1CCOC(CO)C1 (stereo not shown) [Compound I-0338]
  IC50: 10 to 100 nM

## O=C(Cn1c(CCCC(F)(F)F)nc(C2=CCC(C(F)(F)F)CC2)cc1=O)NCC1(CO)COC1 (stereo not shown) [Compound I-0339]
  IC50: 10 to 100 nM

## O=C(Cn1c(CCCC(F)(F)F)nc(-c2ccc(C(F)(F)F)cc2)cc1=O)NCc1ccc(O)nc1 [Compound I-0340]
  IC50: 100 to 1000 nM

## CC(C)(C)OC(=O)Cn1c(CCC(F)(F)F)nc(-c2ccc(Cl)cc2NC(=O)C(C)(C)C)cc1=O [Compound I-0341]
  IC50: 100 to 1000 nM

## NC(=O)C1CCN(C(=O)Cn2c(CCCC(F)(F)F)nc(-c3ccc(C(F)(F)F)cc3)cc2=O)CC1 [Compound I-0342]
  IC50: 10 to 100 nM

## O=C1CCC(CNC(=O)Cn2c(CCCC(F)(F)F)nc(-c3ccc(C(F)(F)F)cc3)cc2=O)CN1 (stereo not shown) [Compound I-0343]
  IC50: 100 to 1000 nM

## O=C(Cn1c(CCCC(F)(F)F)nc(-c2ccc(C(F)(F)F)cc2)cc1=O)NCC1(O)CCCCC1 [Compound I-0344]
  IC50: 10 to 100 nM

## O=C(O)c1cccc(Cn2c(CCC(F)(F)F)nc(-c3ccc(Cl)cc3NC(=O)C3CC3)cc2=O)c1 [Compound I-0345]
  IC50: 10 to 100 nM

## O=C(Cn1c(CCCC(F)(F)F)nc(-c2ccc(C(F)(F)F)cc2)cc1=O)N1CCN(CCO)CC1 [Compound I-0346]
  IC50: 10 to 100 nM

## O=C(Cn1c(CCCC(F)(F)F)nc(-c2ccc(C(F)(F)F)cc2)cc1=O)NC1(c2cccnc2)CC1 [Compound I-0347]
  IC50: 10 to 100 nM

## O=C(Cn1c(CCCC(F)(F)F)nc(-c2ccc(C(F)(F)F)cc2)cc1=O)NC1(c2ccccn2)CC1 [Compound I-0348]
  IC50: 10 to 100 nM

## O=C(Cn1c(CCCC(F)(F)F)nc(-c2ccc(C(F)(F)F)cc2)cc1=O)N1CCS(=O)(=O)CC1 [Compound I-0349]
  IC50: 10 to 100 nM

## CNC(=O)C1CCN(C(=O)Cn2c(CCCC(F)(F)F)nc(-c3ccc(C(F)(F)F)cc3)cc2=O)CC1 [Compound I-0350]
  IC50: 10 to 100 nM

## CC(=O)NC1CCN(C(=O)Cn2c(CCCC(F)(F)F)nc(-c3ccc(C(F)(F)F)cc3)cc2=O)CC1 [Compound I-0351]
  IC50: 100 to 1000 nM

## CC(C)(O)C1CCN(C(=O)Cn2c(CCCC(F)(F)F)nc(-c3ccc(C(F)(F)F)cc3)cc2=O)CC1 [Compound I-0352]
  IC50: 10 to 100 nM

## NC(=S)C1CCN(C(=O)Cn2c(CCCC(F)(F)F)nc(-c3ccc(C(F)(F)F)cc3)cc2=O)CC1 [Compound I-0353]
  IC50: 10 to 100 nM

## O=C(Cn1c(CCCC(F)(F)F)nc(-c2ccc(C(F)(F)F)cc2)cc1=O)N1CCC(OCCO)CC1 [Compound I-0354]
  IC50: 10 to 100 nM
